Measurements taken from patent US20070142392A1, “Uses of rifamycins” (ActivBiotics, Inc., priority 2005, published 2007).
≈ marks a conversion by molar mass, not a printed value.

Columns and labels:
Type in all cases: cell-based
S. aureus [1] = assay: minimal bactericidal concentration in the stationary growth phase (MBCstat); settings: Staphylococcus aureus, 1% glucose PBS pH 7.4 with 4% Muller Hinton Broth
Protocol: FIG. 2A is a schematic illustration showing the peak drug concentration of Compound 86 (1.13 μg/ml) in cage fluid from non-infected animals after single dose of 12.5 mg/kg. […] In this medium, bacterial counts remained stable in the absence of antibacterial agents for >36 hours.
In this medium, bacterial counts remained stable in the absence of antibacterial agents for >36 hours.
The minimal bactericidal concentration in the stationary growth phase (MBCstat) was determined by using overnight bacterial cultures which were centrifuged and resuspended in medium containing 1% glucose supplemented phosphate buffered saline (PBS) pH 7.4 with 4% Muller Hinton Broth (Zimmerli et al., J Antimicrob. Chemother. 33:959-967 (1994)). In this medium, bacterial counts remained stable in the absence of antibacterial agents for >36 hours.

C. trachomatis = assay: MIC values, C. trachomatis (Table 2)
E. coli = assay: MIC values, E. coli (Tables 1-4)
S. aureus [2] = assay: MIC values, S. aureus (Tables 1-4)
H. flu = test system: H. flu
E. faecalis = assay: MIC values, E. faecalis (Tables 1-4)
S. pneumo. = assay: MIC values, S. pneumo. (Tables 1-4)

| Structure (SMILES) | MBC (S. aureus [1]) [µg/mL] | MIC C. trachomatis (C. trachomatis) [µg/mL] | MIC E. coli (E. coli) [µg/mL] | MIC S. aureus (S. aureus [2]) [µg/mL] | MIC H. flu (H. flu) [µg/mL] | MIC F. faecalis (E. faecalis; Table 2) [µg/mL] | MIC S. pneumo. (S. pneumo.) [µg/mL] | MIC E. faecalis (E. faecalis) [µg/mL] |
| --- | --- | --- | --- | --- | --- | --- | --- | --- |
| CO[C@H]1/C=C/O[C@@]2(C)Oc3c(C)c(O)c4c(=O)c(c5oc6cc(N7CC8CCC(C7)N8C)cc(O)c6nc-5c4c3C2=O)NC(=O)/C(C)=C\C=C\[C@H](C)[C@H](O)[C@@H](C)[C@@H](O)[C@@H](C)[C@H](OC(C)=O)[C@@H]1C [Compound 151] | 0.156 (≈ 0.169 µM) | – | – | – | – | – | – | – |
| CO[C@H]1/C=C/O[C@@]2(C)Oc3c(C)c(O)c4c(=O)c(c5oc6c7c(cc(O)c6nc-5c4c3C2=O)N(C)CCCN7C)NC(=O)/C(C)=C\C=C\[C@H](C)[C@H](O)[C@@H](C)[C@@H](O)[C@@H](C)[C@H](O)[C@@H]1C [Compound 83] | – | 0.001 (≈ 0.00117 µM) | >8 | 0.12 (≈ 0.14 µM) | 2 (≈ 2.33 µM) | 1 (≈ 1.17 µM) | 0.00012 (≈ 0.00014 µM) | – |
| CO[C@H]1/C=C/O[C@@]2(C)Oc3c(C)c(O)c4c(=O)c(c5oc6cc(N(C)C7CCN(C)CC7)cc(O)c6nc-5c4c3C2=O)NC(=O)/C(C)=C\C=C\[C@H](C)[C@H](O)[C@@H](C)[C@@H](O)[C@@H](C)[C@H](O)[C@@H]1C [Compound 129] | – | – | 4 (≈ 4.52 µM) | 0.004 (≈ 0.00452 µM) | 0.25 (≈ 0.282 µM) | – | 0.00025 (≈ 0.000282 µM) | 0.5 (≈ 0.565 µM) |
| CO[C@H]1/C=C/O[C@@]2(C)Oc3c(C)c(O)c4c(=O)c(c5oc6cc(N7CCC(N8CCOCC8)CC7)cc(O)c6nc-5c4c3C2=O)NC(=O)/C(C)=C\C=C\[C@H](C)[C@H](O)[C@@H](C)[C@@H](O)[C@@H](C)[C@H](OC(C)=O)[C@@H]1C [Compound 9] | – | – | 8 (≈ 8.26 µM) | 0.015 (≈ 0.0155 µM) | 2 (≈ 2.06 µM) | – | 0.001 (≈ 0.00103 µM) | 2 (≈ 2.06 µM) |
| CO[C@H]1/C=C/O[C@@]2(C)Oc3c(C)c(O)c4c(=O)c(c5sc6cc(N7CCN(C)CC7)ccc6nc-5c4c3C2=O)NC(=O)/C(C)=C\C=C\[C@H](C)[C@H](O)[C@@H](C)[C@@H](O)[C@@H](C)[C@H](O)[C@@H]1C [Compound 104] | – | – | 2 (≈ 2.33 µM) | 0.002 (≈ 0.00233 µM) | 0.12 (≈ 0.14 µM) | – | 0.00012 (≈ 0.00014 µM) | 0.12 (≈ 0.14 µM) |
| CO[C@H]1/C=C/O[C@@]2(C)Oc3c(C)c(O)c4c(=O)c(c5oc6cc(N7CCC(NC(=O)OC(C)(C)C)CC7)cc(O)c6nc-5c4c3C2=O)NC(=O)/C(C)=C\C=C\[C@H](C)[C@H](O)[C@@H](C)[C@@H](O)[C@@H](C)[C@H](OC(C)=O)[C@@H]1C [Compound 48] | – | – | >8 | 0.008 (≈ 0.00801 µM) | 1 (≈ 1 µM) | – | 0.00025 (≈ 0.00025 µM) | 2 (≈ 2 µM) |
| CCOC(=O)N1CCCC2CN(c3cc(O)c4nc5c6c7c8c(C)c(O)c6c(=O)c(c-5oc4c3)NC(=O)C(C)=CC=CC(C)C(O)C(C)C(O)C(C)C(O)C(C)C(OC)C=COC(C)(O8)C7=O)CC21 (stereo not shown) [Compound 148] | – | – | 8 (≈ 8.38 µM) | 0.008 (≈ 0.00838 µM) | 0.5 (≈ 0.524 µM) | – | 0.00012 (≈ 0.000126 µM) | 2 (≈ 2.09 µM) |
| CO[C@H]1/C=C/O[C@@]2(C)Oc3c(C)c(O)c4c(=O)c(c5oc6ccc(F)cc6nc-5c4c3C2=O)NC(=O)/C(C)=C\C=C\[C@H](C)[C@H](O)[C@@H](C)[C@@H](O)[C@@H](C)[C@H](O)[C@@H]1C [Compound 138] | – | – | >8 | 0.03 (≈ 0.0394 µM) | 0.5 (≈ 0.657 µM) | – | 0.06 (≈ 0.0789 µM) | 0.5 (≈ 0.657 µM) |
